From patent US20050239656A1, “Pyridine compounds or salts thereof and herbicides containing the same” (priority 2002, published 2005)

Each compound was assayed on velvetleaf (assay: Test Example 2: soil surface treatment, upland pot test). Conditions: active ingredient 1000 g/ha, observed 20th to 28th day.
Assay type: in vivo, Abutilon theophrasti MEDIC.
Outline: (§1)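 Visual growth-control ratings, from 0 (like the non-treated plot) to 100 (total kill), were made between days 20 and 28 after a soil-surface spray. The compound, formulated as wettable powder or emulsifiable concentrate and diluted at 1,500 L/ha, went on one day post-sowing in upland-soil pots of 1/170,000 ha.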

Compound | Growth controlling degree (%) Velvetleaf [%]
CCC(=O)N(CC)C(c1cnccc1C(F)(F)F)c1cccc2ccccc12 (stereo not shown) [I-44] | 0

These compounds were tested on soybean in the same assay as above. Conditions: active ingredient 1000 g/ha, observed 20th to 28th day.
Assay type: in vivo, Glycine max Merr.
Outline: as §1

Compound | Growth controlling degree (%) Soyabean [%]
CCC(=O)N(CC)C(c1cnccc1C(F)(F)F)c1cccc2ccccc12 (stereo not shown) [I-44] | 0

The compounds below were run on rice in the same assay as above. Conditions: active ingredient 1000 g/ha, observed 20th to 28th day.
Assay type: in vivo, Oryza sativa L.
Outline: as §1

Compound | Growth controlling degree (%) Rice [%]
CCC(=O)N(CC)C(c1cnccc1C(F)(F)F)c1cccc2ccccc12 (stereo not shown) [I-44] | 40

Each compound was assayed on green foxtail in the same assay as above. Conditions: active ingredient 1000 g/ha, observed 20th to 28th day.
Assay type: in vivo, Setaria viridis L.
Outline: as §1

Compound | Growth controlling degree (%) Green foxtail [%]
CCC(=O)N(CC)C(c1cnccc1C(F)(F)F)c1cccc2ccccc12 (stereo not shown) [I-44] | 100

These compounds were tested on wheat in the same assay as above. Conditions: active ingredient 1000 g/ha, observed 20th to 28th day.
Assay type: in vivo, Triticum spp.
Outline: as §1

Compound | Growth controlling degree (%) wheat [%]
CCC(=O)N(CC)C(c1cnccc1C(F)(F)F)c1cccc2ccccc12 (stereo not shown) [I-44] | 40

Each compound was assayed on velvetleaf (assay: Test Example 1: foliage treatment, upland pot test). Conditions: active ingredient 1000 g/ha, observed 18th to 23rd day, 0 = non-treated, 100 = complete kill.
Assay type: in vivo, Abutilon theophrasti MEDIC.

Compound | Growth controlling degree (%) Velvetleaf [%]
CCC(=O)N(CC)C(c1cnccc1C(F)(F)F)c1cccc2ccccc12 (stereo not shown) [I-44] | 95

What follows are compounds tested on corn (assay: Test Example 1: foliage treatment, upland pot test). Conditions: crop, active ingredient 1000 g/ha, observed 18th to 23rd day, 0 = non-treated, 100 = complete kill.
Assay type: in vivo, Zea mays L.
Outline: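 Corn seeds were sown in upland field soil held in a 1/170,000 ha pot and grown to the 2.1 to 3.2 leaf stage. A wettable powder or emulsifiable concentrate of the test compound was diluted with water at 500 L/ha, given 0.1% (v/v) agricultural spreader, and sprayed onto the foliage with a small sprayer. Growth controlling degree (%) was scored visually 18th to 23rd days later, from 0 (non-treated) to 100 (complete kill).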

Compound | Growth controlling degree (%) Corn [%]
CCC(=O)N(CC)C(c1cnccc1C(F)(F)F)c1cccc2ccccc12 (stereo not shown) [I-44] | 10

Each compound was assayed on redroot pigweed (assay: Test Example 2: soil surface treatment, upland pot test). Conditions: active ingredient 1000 g/ha, observed 20th to 28th day.
Assay type: in vivo, Amaranthus retroflexus L.
Outline: as §1

Compound | Growth controlling degree (%) Redroot pigweed [%]
CCC(=O)N(CC)C(c1cnccc1C(F)(F)F)c1cccc2ccccc12 (stereo not shown) [I-44] | 0

These compounds were tested on tall morningglory (assay: Test Example 1: foliage treatment, upland pot test). Conditions: active ingredient 1000 g/ha, observed 18th to 23rd day, 0 = non-treated, 100 = complete kill.
Assay type: in vivo, Ipomoea purpurea L.
From the text: Upland field soil was put into a 1/170,000 ha pot, and seed of various plants were sown. Then, when the plants reached predetermined leaf stages ((1) barnyardgrass: 1.3 to 2.8 leaf stages, (2) crabgrass: 1.0 to 2.8 leaf stages, (3) green foxtail: 1.3 to 2.6 leaf stages, (4) redroot pigweed: 0.1 to 1.2 leaf stages, (5) prickly sida: 0.1 to 1.2 leaf stages, (6) velvetleaf: 0.1 to 1.2 leaf stages, (7) tall morningglory: 0.1 to 1.5 leaf stages, (8) rice: 1.2 to 2.6 leaf stages, (9) wheat: 1.3 to 2.4 leaf stages, (10) corn, 2.1 to 3.2 leaf stages, (11) soybean: 0.1 to 0.4 leaf stage), a wettable powder or emulsifiable concentrate having the compound of the present invention formulated in accordance with a usual formulation method, was weighed so that the active ingredient would be a predetermined amount, and diluted with water in an amount of 500 L/ha. To the diluted solution, 0.1% (v/v) of agricultural spreader was added. The herbicide thus adjusted was applied by a small size sprayer for foliage treatment. On the 18th to 23rd days after the application of the herbicide, the growth of the respective plants was visually observed, and the herbicidal effects were evaluated by the growth controlling degrees (%) ranging from 0 (equivalent to the non-treated plot) to 100 (complete kill), whereby the results shown in Table 3, were obtained.

Compound | Growth controlling degree (%) Tall morningglory [%]
CCC(=O)N(CC)C(c1cnccc1C(F)(F)F)c1cccc2ccccc12 (stereo not shown) [I-44] | 90

What follows are compounds tested on japanese ribbon wapato (assay: Test Example 3: paddy pot test, application under submerged conditions). Conditions: active ingredient 500 g/ha; submerged application at primary leaf stage; visually observed 14 days after application; 0 = non-treated, 100 = complete kill.
Assay type: in vivo, Sagittaria pygniaea
Outline: (§2)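 Seeds were sown in flooded paddy soil (0.5–1 cm water), wapato tubers were planted 1–2 days later, and water was then held at 3–4 cm. Diluted wettable powder or emulsifiable concentrate was pipetted into the water at the 0.5 leaf or primary leaf stage. Growth control was visually scored at 14 days (0–100%).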

Compound | Growth controlling degree (%) Japanese ribbon wapato [%]
CCC(=O)N(CC)C(c1cnccc1C(F)(F)F)c1cccc2ccccc12 (stereo not shown) [I-44] | 100

What follows are compounds tested on prickly sida (assay: Test Example 2: soil surface treatment, upland pot test). Conditions: active ingredient 1000 g/ha, observed 20th to 28th day.
Assay type: in vivo, Sida spinosa L.
Outline: as §1

Compound | Growth controlling degree (%) Prickly sida [%]
CCC(=O)N(CC)C(c1cnccc1C(F)(F)F)c1cccc2ccccc12 (stereo not shown) [I-44] | 0

Each compound was assayed on corn in the same assay as above. Conditions: active ingredient 1000 g/ha, observed 20th to 28th day.
Assay type: in vivo, Zea mays L.
Outline: as §1

Compound | Growth controlling degree (%) Corn [%]
CCC(=O)N(CC)C(c1cnccc1C(F)(F)F)c1cccc2ccccc12 (stereo not shown) [I-44] | 10

These compounds were tested on crabgrass in the same assay as above. Conditions: active ingredient 1000 g/ha, observed 20th to 28th day.
Assay type: in vivo, Digitaria sanguinalis L.
Outline: as §1

Compound | Growth controlling degree (%) Crabgrass [%]
CCC(=O)N(CC)C(c1cnccc1C(F)(F)F)c1cccc2ccccc12 (stereo not shown) [I-44] | 90

The compounds below were run on soybean (assay: Test Example 1: foliage treatment, upland pot test). Conditions: crop, active ingredient 1000 g/ha, observed 18th to 23rd day, 0 = non-treated, 100 = complete kill.
Assay type: in vivo, Glycine max Merr.
Outline: (§3)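 Pots of upland field soil were sown and sprayed post-emergence at soybean 0.1–0.4, wheat 1.3–2.4, rice 1.2–2.6 and barnyardgrass 1.3–2.8 leaf stages. Formulations were diluted in water at 500 L/ha with 0.1% (v/v) spreader. Growth control (0 = untreated, 100 = complete kill) was judged by eye 18–23 days later.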

Compound | Growth controlling degree (%) Soybean [%]
CCC(=O)N(CC)C(c1cnccc1C(F)(F)F)c1cccc2ccccc12 (stereo not shown) [I-44] | 50

What follows are compounds tested on barnyardgrass (assay: Test Example 3: paddy pot test, application under submerged conditions). Conditions: active ingredient 500 g/ha; submerged application at 0.5 leaf stage; visually observed 14 days after application; 0 = non-treated, 100 = complete kill.
Assay type: in vivo, Echinochloa crus-galli L.
Outline: as §2

Compound | Growth controlling degree (%) Barnyardgrass [%]
CCC(=O)N(CC)C(c1cnccc1C(F)(F)F)c1cccc2ccccc12 (stereo not shown) [I-44] | 90

The compounds below were run on barnyardgrass (assay: Test Example 1: foliage treatment, upland pot test). Conditions: active ingredient 1000 g/ha, observed 18th to 23rd day, 0 = non-treated, 100 = complete kill.
Assay type: in vivo, Echinochloa crus-galli L.
Outline: as §3

Compound | Growth controlling degree (%) Barnyardgrass [%]
CCC(=O)N(CC)C(c1cnccc1C(F)(F)F)c1cccc2ccccc12 (stereo not shown) [I-44] | 60

The compounds below were run on crabgrass (assay: Test Example 1: foliage treatment, upland pot test). Conditions: active ingredient 1000 g/ha, observed 18th to 23rd day, 0 = non-treated, 100 = complete kill.
Assay type: in vivo, Digitaria sanguinalis L.

Compound | Growth controlling degree (%) Crabgrass [%]
CCC(=O)N(CC)C(c1cnccc1C(F)(F)F)c1cccc2ccccc12 (stereo not shown) [I-44] | 80

Each compound was assayed on rice (assay: Test Example 1: foliage treatment, upland pot test). Conditions: crop, active ingredient 1000 g/ha, observed 18th to 23rd day, 0 = non-treated, 100 = complete kill.
Assay type: in vivo, Oryza sativa L.
Outline: as §3

Compound | Growth controlling degree (%) Rice [%]
CCC(=O)N(CC)C(c1cnccc1C(F)(F)F)c1cccc2ccccc12 (stereo not shown) [I-44] | 10

The compounds below were run on barnyardgrass (assay: Test Example 2: soil surface treatment, upland pot test). Conditions: active ingredient 1000 g/ha, observed 20th to 28th day, 0 = non-treated, 100 = complete kill.
Assay type: in vivo, Echinochloa crus-galli L.
Outline: as §1

Compound | Growth controlling degree (%) Barnyardgrass [%]
CCC(=O)N(CC)C(c1cnccc1C(F)(F)F)c1cccc2ccccc12 (stereo not shown) [I-44] | 80

What follows are compounds tested on prickly sida (assay: Test Example 1: foliage treatment, upland pot test). Conditions: active ingredient 1000 g/ha, observed 18th to 23rd day, 0 = non-treated, 100 = complete kill.
Assay type: in vivo, Sida spinosa L.

Compound | Growth controlling degree (%) Prickly sida [%]
CCC(=O)N(CC)C(c1cnccc1C(F)(F)F)c1cccc2ccccc12 (stereo not shown) [I-44] | 80

Each compound was assayed on wheat (assay: Test Example 1: foliage treatment, upland pot test). Conditions: crop, active ingredient 1000 g/ha, observed 18th to 23rd day, 0 = non-treated, 100 = complete kill.
Assay type: in vivo, Triticum spp.
Outline: as §3

Compound | Growth controlling degree (%) wheat [%]
CCC(=O)N(CC)C(c1cnccc1C(F)(F)F)c1cccc2ccccc12 (stereo not shown) [I-44] | 20

These compounds were tested on japanese bulrush (assay: Test Example 3: paddy pot test, application under submerged conditions). Conditions: active ingredient 500 g/ha; submerged application at 0.5 leaf stage; visually observed 14 days after application; 0 = non-treated, 100 = complete kill.
Assay type: in vivo, Scirpus juncoides
Outline: as §2

Compound | Growth controlling degree (%) Japanese bulrush [%]
CCC(=O)N(CC)C(c1cnccc1C(F)(F)F)c1cccc2ccccc12 (stereo not shown) [I-44] | 95

What follows are compounds tested on rice (var. Nihonbare) (assay: Test Example 3: paddy pot test, transplanted rice). Conditions: active ingredient 500 g/ha, applied 4th day after transplantation, visually observed 21st day after application, 0 = non-treated, 100 = complete kill.
Assay type: in vivo, Oryza sativa L.
Outline: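 Rice (2-leaf stage) was transplanted 3 cm deep into puddled, leveled paddy soil under 3–4 cm flooding. On day 4 after transplanting, diluted wettable powder or emulsifiable concentrate was pipetted onto the water at a predetermined active-ingredient dose. Growth control (0 = untreated, 100 = complete kill) was scored visually 21 days later.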

Compound | Growth controlling degree (%) Rice [%]
CCC(=O)N(CC)C(c1cnccc1C(F)(F)F)c1cccc2ccccc12 (stereo not shown) [I-44] | 30

What follows are compounds tested on redroot pigweed (assay: Test Example 1: foliage treatment, upland pot test). Conditions: active ingredient 1000 g/ha, observed 18th to 23rd day, 0 = non-treated, 100 = complete kill.
Assay type: in vivo, Amaranthus retroflexus L.

Compound | Growth controlling degree (%) Redroot pigweed [%]
CCC(=O)N(CC)C(c1cnccc1C(F)(F)F)c1cccc2ccccc12 (stereo not shown) [I-44] | 70

What follows are compounds tested on green foxtail (assay: Test Example 1: foliage treatment, upland pot test). Conditions: active ingredient 1000 g/ha, observed 18th to 23rd day, 0 = non-treated, 100 = complete kill.
Assay type: in vivo, Setaria viridis L.

Compound | Growth controlling degree (%) Green foxtail [%]
CCC(=O)N(CC)C(c1cnccc1C(F)(F)F)c1cccc2ccccc12 (stereo not shown) [I-44] | 70
